Measurements published in the NIST ThermoML archive (doi:10.1021/je900284z).
Values joined by “and” are separate entries in the source; they are usually repeats but may differ in a detail not shown here. Equal values may be shown once.

Conditions: Liquid; for viscosity: Falling or rolling sphere viscometry; for mass density: 101.33 kPa

CCCCC(CC)COC(=O)c1ccccc1 (stereo not drawn) [2-ethylhexyl benzoate]
Conditions | viscosity
263.15 K, 100 kPa | 29.42 mPa·s and 29.39 mPa·s
268.15 K, 100 kPa | 21.45 mPa·s and 21.43 mPa·s
273.15 K, 100 kPa | 16.21 mPa·s and 16.22 mPa·s
273.15 K, 700 kPa | 16.39 mPa·s
273.15 K, 14200 kPa | 20.88 mPa·s
273.15 K, 16100 kPa | 22.11 mPa·s
273.15 K, 29700 kPa | 28.8 mPa·s
273.15 K, 45500 kPa | 38.79 mPa·s
273.15 K, 47100 kPa | 39.5 mPa·s
273.15 K, 60900 kPa | 51.94 mPa·s
273.15 K, 81800 kPa | 78.37 mPa·s
273.15 K, 102000 kPa | 114.7 mPa·s
273.15 K, 110600 kPa | 132.5 mPa·s
273.15 K, 149800 kPa | 286.9 mPa·s
283.15 K, 100 kPa | 10.07 mPa·s
293.15 K, 100 kPa | 6.753 mPa·s and 6.756 mPa·s
298.15 K, 100 kPa | 5.574 mPa·s and 5.529 mPa·s
298.15 K, 300 kPa | 5.708 mPa·s
298.15 K, 900 kPa | 5.771 mPa·s
298.15 K, 26000 kPa | 8.4 mPa·s
298.15 K, 50900 kPa | 12.07 mPa·s
298.15 K, 75600 kPa | 17.19 mPa·s
298.15 K, 100800 kPa | 24.58 mPa·s
298.15 K, 125500 kPa | 34.9 mPa·s
298.15 K, 150900 kPa | 49.92 mPa·s
298.15 K, 175100 kPa | 70.34 mPa·s
298.15 K, 200700 kPa | 101 mPa·s
298.15 K, 225200 kPa | 143.1 mPa·s
298.15 K, 250700 kPa | 206 mPa·s
303.15 K, 100 kPa | 4.847 mPa·s
313.15 K, 100 kPa | 3.641 mPa·s and 3.644 mPa·s and 3.646 mPa·s
323.15 K, 100 kPa | 2.859 mPa·s and 2.857 mPa·s
323.15 K, 25900 kPa | 3.952 mPa·s
323.15 K, 50900 kPa | 5.32 mPa·s
323.15 K, 75800 kPa | 7.088 mPa·s
323.15 K, 100600 kPa | 9.368 mPa·s
323.15 K, 125700 kPa | 12.33 mPa·s
323.15 K, 150400 kPa | 16.17 mPa·s
323.15 K, 174800 kPa | 20.75 mPa·s
323.15 K, 175600 kPa | 21.33 mPa·s
323.15 K, 200800 kPa | 28.03 mPa·s
323.15 K, 225600 kPa | 36.82 mPa·s
323.15 K, 250400 kPa | 48.19 mPa·s
323.15 K, 275200 kPa | 62.86 mPa·s
323.15 K, 300000 kPa | 82.18 mPa·s
323.15 K, 300100 kPa | 82.04 mPa·s
333.15 K, 100 kPa | 2.3 mPa·s
343.15 K, 100 kPa | 1.834 mPa·s [middle of 5 runs]
348.15 K, 100 kPa | 1.728 mPa·s and 1.73 mPa·s
348.15 K, 10800 kPa | 1.956 mPa·s
348.15 K, 25400 kPa | 2.3 mPa·s
348.15 K, 50800 kPa | 2.994 mPa·s
348.15 K, 75900 kPa | 3.826 mPa·s
348.15 K, 100800 kPa | 4.842 mPa·s
348.15 K, 125700 kPa | 6.009 mPa·s
348.15 K, 150700 kPa | 7.634 mPa·s
348.15 K, 175700 kPa | 9.511 mPa·s
348.15 K, 200700 kPa | 11.85 mPa·s
348.15 K, 225700 kPa | 14.77 mPa·s
348.15 K, 250500 kPa | 18.23 mPa·s
348.15 K, 275300 kPa | 22.56 mPa·s
348.15 K, 276300 kPa | 22.83 mPa·s
348.15 K, 302300 kPa | 28.48 mPa·s
348.15 K, 315200 kPa | 31.58 mPa·s

Conditions | mass density [kg/m3]
273.15 K | 981.12
278.15 K | 977.18
283.15 K | 973.25
288.15 K | 969.32
293.15 K | 965.4
298.15 K | 961.49
303.15 K | 957.57
313.15 K | 949.73
323.15 K | 941.92
333.15 K | 934.11
343.15 K | 926.28
353.15 K | 918.45
363.15 K | 910.61

CCCCC(CC)COC(=O)c1ccccc1C(=O)OCC(CC)CCCC (stereo not drawn) [bis(2-ethylhexyl) 1,2-benzenedicarboxylate]
Conditions | viscosity
273.15 K, 100 kPa | 359.9 mPa·s and 359.7 mPa·s
273.15 K, 24100 kPa | 680.7 mPa·s
283.15 K, 100 kPa | 158 mPa·s and 158.6 mPa·s
283.15 K, 400 kPa | 160.2 mPa·s
283.15 K, 20800 kPa | 266.5 mPa·s
283.15 K, 41000 kPa | 430.5 mPa·s
283.15 K, 60000 kPa | 663.5 mPa·s
283.15 K, 80400 kPa | 1034 mPa·s
283.15 K, 100100 kPa | 1566 mPa·s
283.15 K, 123400 kPa | 2473 mPa·s
298.15 K, 100 kPa | 58.79 mPa·s and 57.58 mPa·s and 57.59 mPa·s
298.15 K, 600 kPa | 59.35 mPa·s
298.15 K, 25800 kPa | 103.4 mPa·s
298.15 K, 50000 kPa | 167.4 mPa·s
298.15 K, 50900 kPa | 174.2 mPa·s
298.15 K, 76300 kPa | 287.8 mPa·s
298.15 K, 100500 kPa | 455.2 mPa·s
298.15 K, 126600 kPa | 730.7 mPa·s
298.15 K, 150400 kPa | 1103 mPa·s
298.15 K, 174300 kPa | 1631 mPa·s
298.15 K, 199800 kPa | 2527 mPa·s
303.15 K, 100 kPa | 44.29 mPa·s and 44.2 mPa·s and 43.49 mPa·s
310.93 K, 100 kPa | 28.88 mPa·s [middle of 4 runs]
310.93 K, 47400 kPa | 73.56 mPa·s
310.93 K, 75300 kPa | 120.3 mPa·s
310.93 K, 99500 kPa | 185.1 mPa·s
310.93 K, 148600 kPa | 413.1 mPa·s
310.93 K, 176000 kPa | 617.9 mPa·s
310.93 K, 201800 kPa | 912.7 mPa·s
310.93 K, 223800 kPa | 1259 mPa·s
310.93 K, 247800 kPa | 1794 mPa·s
310.93 K, 250800 kPa | 1819 mPa·s
310.93 K, 274000 kPa | 2555 mPa·s
313.15 K, 100 kPa | 26.6 mPa·s and 26.58 mPa·s
323.15 K, 100 kPa | 17.17 mPa·s and 17.01 mPa·s and 17.1 mPa·s
323.15 K, 700 kPa | 17.26 mPa·s
323.15 K, 10600 kPa | 20.76 mPa·s
323.15 K, 25700 kPa | 27.26 mPa·s
323.15 K, 50700 kPa | 42.19 mPa·s
323.15 K, 75600 kPa | 63.74 mPa·s
323.15 K, 100600 kPa | 94.67 mPa·s
323.15 K, 125600 kPa | 138.7 mPa·s
323.15 K, 150600 kPa | 200.2 mPa·s
323.15 K, 175600 kPa | 286.3 mPa·s
323.15 K, 200300 kPa | 403.4 mPa·s
323.15 K, 223100 kPa | 539 mPa·s
323.15 K, 252300 kPa | 794.8 mPa·s
323.15 K, 276700 kPa | 1055.1 mPa·s
323.15 K, 295400 kPa | 1355.1 mPa·s
323.15 K, 323700 kPa | 1952.3 mPa·s
333.15 K, 100 kPa | 11.73 mPa·s and 11.71 mPa·s
343.15 K, 100 kPa | 8.499 mPa·s and 8.51 mPa·s
348.15 K, 100 kPa | 7.416 mPa·s and 7.422 mPa·s
348.15 K, 50800 kPa | 15.52 mPa·s
348.15 K, 54100 kPa | 16.45 mPa·s
348.15 K, 75900 kPa | 22.09 mPa·s
348.15 K, 100800 kPa | 30.91 mPa·s
348.15 K, 103500 kPa | 32.17 mPa·s
348.15 K, 125800 kPa | 42.61 mPa·s
348.15 K, 150800 kPa | 58.12 mPa·s
348.15 K, 175700 kPa | 78.72 mPa·s
348.15 K, 200700 kPa | 105.6 mPa·s
348.15 K, 225500 kPa | 140.4 mPa·s
348.15 K, 250300 kPa | 185.6 mPa·s
348.15 K, 275000 kPa | 243.8 mPa·s
348.15 K, 299100 kPa | 316.7 mPa·s
348.15 K, 324100 kPa | 412.7 mPa·s
348.15 K, 348100 kPa | 529.4 mPa·s
348.15 K, 371000 kPa | 669 mPa·s

Conditions | mass density [kg/m3]
273.15 K | 998.82
278.15 K | 995.01
283.15 K | 991.26
293.15 K | 983.87
298.15 K | 980.15
303.15 K | 976.42
313.15 K | 968.98
323.15 K | 961.53
333.15 K | 954.11
343.15 K | 946.68
353.15 K | 939.27
363.15 K | 931.85
